In paper PMC4278837, “A Cyclic Peptidic Serine Protease Inhibitor: Increasing Affinity by Increasing Peptide Flexibility” (PLoS ONE, 2014):
Like-named read-outs stand apart in the source and are kept apart here. Bridge positions count the residues as written; N and C are the ends. Square brackets hold non-standard residues; d marks the D form. Peptide text beside a SMILES is read from it. Ala(1-amidino-4-piperidyl) = N=C(N)N1CCC(C[C@H](N)C(=O)O)CC1

Legend:
huPA-H99Y [1] = target: T1, huPA-H99Y (Homo sapiens, UniProt P00749, H272Y); assay: Ki for inhibition of huPA-H99Y, chromogenic substrate S-2444; assay type: biochemical
T1 construct: To ensure that the uPAs purified from the conditioned media were completely in the two-chain form, they were treated with plasmin; hexa-His (C); made in house; host or cells: HEK293 6E suspension cells
Excerpt: (§1) Determination of Ki values
(§2) The initial reaction velocities were monitored at an absorbance of 405 nm. The inhibition constants (K i) were subsequently determined from the non-linear regression analyses of plots for V i/V o versus [I]0, using Equation 2, derived under assumption of competitive inhibition:
(§3) [drawing 2] (2) where V i and V 0 are the reaction velocities in the presence and absence of inhibitor, respectively; [S]0 and [I]0 are the substrate and inhibitor concentrations, respectively; K M is K M for substrate hydrolysis by each protease. In Equation 2, it is assumed that [S]free ≈ [S]0 and [I]free ≈ [I]0.

huPA-H99Y R35A = target: T2, huPA-H99Y R35A (Homo sapiens, UniProt P00749, H272Y/R198A); assay: Ki for inhibition of huPA-H99Y-R35A, chromogenic substrate; assay type: biochemical; conditions: 37°C; means ± S.D.; read-out: K i for inhibition of huPA-H99Y-R35A
T2 construct: To ensure that the uPAs purified from the conditioned media were completely in the two-chain form, they were treated with plasmin; hexa-His (C); made in house; host or cells: HEK293 6E suspension cells
Excerpt: as §1, §2, §3

huPA-H99Y V41A = target: T3, huPA-H99Y V41A (Homo sapiens, UniProt P00749, H272Y/V208A); assay: Ki for inhibition of huPA-H99Y-V41A, chromogenic substrate; assay type: biochemical; conditions: 37°C; means ± S.D.; read-out: K i for inhibition of huPA-H99Y-V41A
T3 construct: To ensure that the uPAs purified from the conditioned media were completely in the two-chain form, they were treated with plasmin; hexa-His (C); made in house; host or cells: HEK293 6E suspension cells
Excerpt: as §1, §2, §3

huPA-H99Y K143A = target: T4, huPA-H99Y K143A (Homo sapiens, UniProt P00749, H272Y/K320A); assay: Ki for inhibition of huPA-H99Y-K143A, chromogenic substrate; assay type: biochemical; conditions: 37°C; means ± S.D.; read-out: K i for inhibition of huPA-H99Y-K143A
T4 construct: To ensure that the uPAs purified from the conditioned media were completely in the two-chain form, they were treated with plasmin; hexa-His (C); made in house; host or cells: HEK293 6E suspension cells
Excerpt: as §1, §2, §3

muPA K41A = target: T5, muPA K41A (Mus musculus, UniProt P06869, K210A); assay: Ki for inhibition of muPA-K41A, chromogenic substrate; assay type: biochemical, murine; conditions: means ± S.D.; read-out: K i for inhibition of muPA-K41A
T5 construct: To ensure that the uPAs purified from the conditioned media were completely in the two-chain form, they were treated with plasmin; hexa-His (C); made in house; host or cells: HEK293 6E suspension cells
Excerpt: as §1, §2, §3

muPA Y99A = target: T6, muPA Y99A (Mus musculus, UniProt P06869, Y274A); assay: Ki for inhibition of muPA-Y99A, chromogenic substrate; assay type: biochemical, murine; conditions: means ± S.D.; read-out: K i for inhibition of muPA-Y99A
T6 construct: To ensure that the uPAs purified from the conditioned media were completely in the two-chain form, they were treated with plasmin; hexa-His (C); made in house; host or cells: HEK293 6E suspension cells
Excerpt: as §1, §2, §3

muPA K143A = target: T7, muPA K143A (Mus musculus, UniProt P06869, K322A); assay: Ki for inhibition of muPA-K143A, chromogenic substrate; assay type: biochemical, murine; conditions: means ± S.D.; read-out: K i for inhibition of muPA-K143A
T7 construct: To ensure that the uPAs purified from the conditioned media were completely in the two-chain form, they were treated with plasmin; hexa-His (C); made in house; host or cells: HEK293 6E suspension cells
Excerpt: as §1, §2, §3

muPA S190A = target: T8, muPA S190A (Mus musculus, UniProt P06869, S373A); assay: Ki for inhibition of muPA-S190A, chromogenic substrate; assay type: biochemical, murine; conditions: means ± S.D.; read-out: K i for inhibition of muPA-S190A
T8 construct: To ensure that the uPAs purified from the conditioned media were completely in the two-chain form, they were treated with plasmin; hexa-His (C); made in house; host or cells: HEK293 6E suspension cells
Excerpt: as §1, §2, §3

muPA V213T = target: T9, muPA V213T (Mus musculus, UniProt P06869, V396T); assay: Ki for inhibition of muPA-V213T, chromogenic substrate; assay type: biochemical, murine; conditions: means ± S.D.; read-out: K i for inhibition of muPA-V213T
T9 construct: To ensure that the uPAs purified from the conditioned media were completely in the two-chain form, they were treated with plasmin; hexa-His (C); made in house; host or cells: HEK293 6E suspension cells
Excerpt: as §1, §2, §3

huPA-H99Y [2] = target: T1, huPA-H99Y; assay: Surface plasmon resonance analysis of peptide binding to huPA-H99Y; conditions: SPR, 25°C, pH 7.4
Protocol: (§4) Surface plasmon resonance (SPR) analysis
(§5) To determine the equilibrium binding constants (KD), the association rate constants (kon) and dissociation rate constants (koff) for peptide binding to uPA, surface plasmon resonance analysis was performed on a Biacore T200 instrument (Biacore, Uppsala, Sweden). A CM5 chip was coupled with the uPA variant (muPA or huPAH99Y) to be analysed, by injecting a concentration of 30 µg/mL uPA in immobilization buffer (10 mM sodium acetate, pH 5.0), aiming for an immobilised level of approximately 500 response units (RU). Immobilisation was followed by surface blocking with ethanolamine. A reference cell was prepared in the same way, without coupling of uPA. Mupain-1 variants in HBS with 0.1% BSA, in a dilution series, were injected at a flow rate of 30 µL per min during 60 s at 25°C. Subsequently, the dissociation was monitored during 600 s. Kinetic constants (k on and k off) were calculated with the Biacore Evaluation Software, using the 1∶1 kinetic fit. The K D values were calculated as k off /k on.

muPA = target: T10, muPA (Mus musculus, UniProt P06869); assay: Surface plasmon resonance analysis of peptide binding to muPA; design: species or system murine; conditions: SPR, 25°C, pH 7.4
T10 construct: To ensure that the uPAs purified from the conditioned media were completely in the two-chain form, they were treated with plasmin; hexa-His (C); made in house; host or cells: HEK293 6E suspension cells
Protocol: as §4, §5

huPA-H99Y [3] = target: T11, huPA-H99Y (Homo sapiens, UniProt P00749, C299A/H272Y/N322Q); assay: Isothermal titration calorimetry for binding to huPA-H99Y catalytic domain; conditions: ITC, 25°C, pH 7.4
T11 construct: recombinant uPA catalytic domain (residues 159–411), harbouring a H99Y mutation; made in house; host or cells: Pichia pastoris X-33 (secreted)
Protocol: For these experiments, we used the catalytic domain of huPA-H99Y expressed in and purified from Pichia pastoris strain X-33 (see above). The protein was dissolved in and dialysed against a buffer of 20 mM sodium phosphate, pH 7.4, 140 mM NaCl. The protein concentration was determined by absorbance at 280 nm, using an extinction coefficient of 43810 M^−1cm^−1. The peptides were dissolved in the above-mentioned buffer. All isothermal titration calorimetry experiments were performed with a MicroCal^TM ITC200 instrument equilibrated to a temperature of 25°C (298oK). The concentration of uPA-H99Y catalytic domain used in the 200 µl sample cell was 5–50 µM, depending on the affinity of the ligand. Titrations were performed by injecting 2 µl of the ligand until the total syringe volume of 40 µl was spent. Titration of ligand into buffer was performed to obtain buffer correction. The equilibrium association constant KA and the reaction enthalpy ΔH were calculated by fitting the integrated titration peaks using a one-binding-site model in the ITC ORIGIN7 programme package. The following formulas for Gibbs free energy ΔG were used to analyse the measured energies
[drawing 4] (4) where R is the gas constant and T the absolute temperature. ΔS, the entropic change during the reaction, was calculated using equations 3 and 4 and the measured K A and ΔH values.

huPA-H99Y Q192A = huPA-H99Y Q192A (Homo sapiens, UniProt P00749, H272Y/Q373A); assay: Ki for inhibition of huPA-H99Y-Q192A, chromogenic substrate; assay type: biochemical; design: To ensure that the uPAs purified from the conditioned media were completely in the two-chain form, they were treated with plasmin; hexa-His (C); made in house; host or cells: HEK293 6E suspension cells; conditions: 37°C; means ± S.D.; read-out: K i for inhibition of huPA-H99Y-Q192A
Excerpt: as §1, §2, §3

[4] = 37°C, means ± S.D., read-out: K i for inhibition of huPA-H99Y

T10 sequence (P06869 180-433 limits assumed): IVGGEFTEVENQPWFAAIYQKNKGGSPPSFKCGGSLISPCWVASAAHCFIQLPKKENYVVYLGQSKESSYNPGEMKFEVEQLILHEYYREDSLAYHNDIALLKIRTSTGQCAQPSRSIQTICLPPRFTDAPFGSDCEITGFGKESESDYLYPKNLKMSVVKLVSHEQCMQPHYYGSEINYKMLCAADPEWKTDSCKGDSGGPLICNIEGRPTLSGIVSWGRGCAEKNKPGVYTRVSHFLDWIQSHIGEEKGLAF
T10 sequence (P06869 21-178 partner limits assumed): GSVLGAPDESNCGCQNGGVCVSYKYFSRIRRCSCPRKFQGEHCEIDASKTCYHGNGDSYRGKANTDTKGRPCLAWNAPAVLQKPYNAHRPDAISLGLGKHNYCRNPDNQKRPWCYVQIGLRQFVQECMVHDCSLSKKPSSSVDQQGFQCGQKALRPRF
T8 sequence (P06869 180-433 S373A): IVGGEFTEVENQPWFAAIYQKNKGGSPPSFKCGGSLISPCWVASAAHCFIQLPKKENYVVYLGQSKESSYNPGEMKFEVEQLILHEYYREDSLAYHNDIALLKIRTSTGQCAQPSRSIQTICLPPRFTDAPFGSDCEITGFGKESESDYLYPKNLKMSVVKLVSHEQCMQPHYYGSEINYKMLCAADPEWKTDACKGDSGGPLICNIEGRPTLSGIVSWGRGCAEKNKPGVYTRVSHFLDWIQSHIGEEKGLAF
T8 sequence (P06869 21-178 partner limits assumed): as the sequence (P06869 21-178 partner limits assumed) above
T9 sequence (P06869 180-433 V396T): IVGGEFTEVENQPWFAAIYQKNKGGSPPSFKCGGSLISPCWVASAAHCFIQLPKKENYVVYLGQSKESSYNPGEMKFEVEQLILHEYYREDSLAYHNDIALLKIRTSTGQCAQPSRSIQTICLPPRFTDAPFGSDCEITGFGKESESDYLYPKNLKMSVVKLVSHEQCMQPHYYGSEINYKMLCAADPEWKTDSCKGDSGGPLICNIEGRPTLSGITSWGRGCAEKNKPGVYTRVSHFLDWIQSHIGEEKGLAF
T9 sequence (P06869 21-178 partner limits assumed): as the sequence (P06869 21-178 partner limits assumed) above
T7 sequence (P06869 180-433 K322A): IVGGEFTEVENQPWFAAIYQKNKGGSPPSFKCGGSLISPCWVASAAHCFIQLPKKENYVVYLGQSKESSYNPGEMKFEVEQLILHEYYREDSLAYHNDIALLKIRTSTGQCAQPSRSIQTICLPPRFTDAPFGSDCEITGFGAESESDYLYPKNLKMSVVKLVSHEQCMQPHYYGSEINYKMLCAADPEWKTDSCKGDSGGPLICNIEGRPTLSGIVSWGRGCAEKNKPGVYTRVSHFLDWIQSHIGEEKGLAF
T7 sequence (P06869 21-178 partner limits assumed): as the sequence (P06869 21-178 partner limits assumed) above
T5 sequence (P06869 180-433 K210A): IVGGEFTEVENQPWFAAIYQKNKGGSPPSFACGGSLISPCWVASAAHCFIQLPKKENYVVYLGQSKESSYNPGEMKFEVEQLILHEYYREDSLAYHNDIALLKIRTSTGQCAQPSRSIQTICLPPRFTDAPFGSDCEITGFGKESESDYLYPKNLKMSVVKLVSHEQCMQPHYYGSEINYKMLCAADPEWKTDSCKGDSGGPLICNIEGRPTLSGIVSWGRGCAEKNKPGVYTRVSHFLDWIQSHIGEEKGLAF
T5 sequence (P06869 21-178 partner limits assumed): as the sequence (P06869 21-178 partner limits assumed) above
T6 sequence (P06869 180-433 Y274A): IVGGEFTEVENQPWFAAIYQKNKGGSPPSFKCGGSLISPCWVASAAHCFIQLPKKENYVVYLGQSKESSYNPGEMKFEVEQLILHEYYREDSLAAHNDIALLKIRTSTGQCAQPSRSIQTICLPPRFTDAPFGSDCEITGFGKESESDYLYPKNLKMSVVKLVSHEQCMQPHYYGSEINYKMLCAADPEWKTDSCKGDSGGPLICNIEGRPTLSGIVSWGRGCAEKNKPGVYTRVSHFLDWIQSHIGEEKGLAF
T6 sequence (P06869 21-178 partner limits assumed): as the sequence (P06869 21-178 partner limits assumed) above

`CC(=O)N[C@H]1CSSC[C@@H](C(N)=O)NC(=O)[C@H](CC(=O)O)NC(=O)[C@H](CC(C)C)NC(=O)[C@H](Cc2ccc(O)cc2)NC(=O)[C@H](CCCNC(=N)N)NC(=O)[C@H](CO)NC(=O)[C@H](Cc2ccc(O)cc2)NC(=O)[C@H](C)NC(=O)[C@H](C)NC1=O` [Mupain-1 P2A, CAAYSRYLDC] (Ac-CAAYSRYLDC-NH2; disulfide 1-10) gave a Ki (huPA-H99Y [1]; [4]) greater than 1000 µM.

Work on `CC(=O)N[C@H]1CSSC[C@@H](C(N)=O)NC(=O)[C@H](C)NC(=O)[C@H](CC(C)C)NC(=O)[C@H](Cc2ccc(O)cc2)NC(=O)[C@H](CC2CCN(C(=N)N)CC2)NC(=O)[C@H](CO)NC(=O)[C@H](Cc2ccc(O)cc2)NC(=O)[C@H](C)NC(=O)[C@@H]2CCCN2C1=O` [Mupain-1-16 D9A, CPAYS[L-3-(N-amidino-4-piperidyl)alanine]YLAC] (Ac-CPAYS[Ala(1-amidino-4-piperidyl)]YLAC-NH2; disulfide 1-10) yielded a Ki (huPA-H99Y [1]; [4]) of 0.309 ± 0.013 µM, a Ki (huPA-H99Y R35A) of 0.174 ± 0.059 µM and a Ki (huPA-H99Y V41A) of 0.48 ± 0.158 µM. It also gave a Ki (huPA-H99Y K143A) of 0.188 ± 0.057 µM, a Ki (muPA K41A) of 0.014 ± 0.002 µM and a Ki (muPA Y99A) of 1.36 ± 0.33 µM. The Ki (muPA K143A) was 0.1 ± 0.02 µM, the Ki (muPA S190A) was 0.529 ± 0.052 µM and the Ki (muPA V213T) was 0.014 ± 0.004 µM. For the same compound, the “k off, huPA-H99Y” value (huPA-H99Y [2]) was 3.33±0.13 (4) s^-1, ×10^2, the “k on, huPA-H99Y” value (huPA-H99Y [2]) was 4.65±0.27 (4) M^-1s^-1, ×10^-5 and the Kd (huPA-H99Y [2]; calculated as k off/k on, read-out: K D, huPA-H99Y) was 0.0718 ± 0.006 µM. The “k off, muPA” value (muPA) was 1.22±0.06 (3) s^−1, ×10^2, the “k on, muPA” value (muPA) was 5.79±0.82 (3) M^−1s^−1, ×10^−5 and the Kd (huPA-H99Y [3]) was 0.134 ± 0.061 µM. The N (huPA-H99Y [3]) was 0.88±0.11 (5), the TΔS (huPA-H99Y [3]) was −6.2±2.7 (5) ^1 kJ/mole and the ΔG (huPA-H99Y [3]) was −39.5±1.1 (5) ^1 kJ/mole. The ΔH (huPA-H99Y [3]) was −46.6±2.9 (5) ^1 kJ/mole and the Ki (huPA-H99Y Q192A) was 0.438 ± 0.072 µM.

Compound `CC(=O)N[C@H]1CSSC[C@@H](C(N)=O)NC(=O)[C@H](CC(=O)O)NC(=O)[C@H](CC(C)C)NC(=O)[C@H](Cc2ccc(O)cc2)NC(=O)[C@H](C)NC(=O)[C@H](CO)NC(=O)[C@H](Cc2ccc(O)cc2)NC(=O)[C@H](C)NC(=O)[C@@H]2CCCN2C1=O` [Mupain-1 R6A, CPAYSAYLDC] (Ac-CPAYSAYLDC-NH2; disulfide 1-10) has a Ki (huPA-H99Y [1]) greater than 1000 µM.

`CC(=O)N[C@H]1CSSC[C@@H](C(N)=O)NC(=O)[C@H](CC(=O)O)NC(=O)[C@H](CC(C)C)NC(=O)[C@H](Cc2ccc(O)cc2)NC(=O)[C@H](CCCNC(=N)N)NC(=O)[C@H](CO)NC(=O)[C@H](C)NC(=O)[C@H](C)NC(=O)[C@@H]2CCCN2C1=O` [Mupain-1 Y4A, CPAASRYLDC] (Ac-CPAASRYLDC-NH2; disulfide 1-10) was tested, and the Ki (huPA-H99Y [1]; [4]) was greater than 1000 µM.
